Experimental data from PMC8386747, “Structure–activity relationship, in vitro and in vivo evaluation of novel dienyl sulphonyl fluorides as selective BuChE inhibitors for the treatment of Alzheimer's disease” (Journal of Enzyme Inhibition and Medicinal Chemistry, 2021).
Read-outs that look alike come from different tables or passages of the source.

What was measured:
[1] = target: T1, BuChE from equine serum (Equus caballus, UniProt P81908); assay: eqBuChE inhibition assay (Ellman's method); assay type: biochemical; conditions: BuChE from horse serum; for IC50: mean ± SEM; for inhibition at 20 µM: read-out: BuChE % inhibition at 20 µM
T1 construct: BuChE from equine serum (C4290-1KU; Sigma); purchased Sigma C4290-1KU; host or cells: equine serum
T1 sequence (P81908 whole entry): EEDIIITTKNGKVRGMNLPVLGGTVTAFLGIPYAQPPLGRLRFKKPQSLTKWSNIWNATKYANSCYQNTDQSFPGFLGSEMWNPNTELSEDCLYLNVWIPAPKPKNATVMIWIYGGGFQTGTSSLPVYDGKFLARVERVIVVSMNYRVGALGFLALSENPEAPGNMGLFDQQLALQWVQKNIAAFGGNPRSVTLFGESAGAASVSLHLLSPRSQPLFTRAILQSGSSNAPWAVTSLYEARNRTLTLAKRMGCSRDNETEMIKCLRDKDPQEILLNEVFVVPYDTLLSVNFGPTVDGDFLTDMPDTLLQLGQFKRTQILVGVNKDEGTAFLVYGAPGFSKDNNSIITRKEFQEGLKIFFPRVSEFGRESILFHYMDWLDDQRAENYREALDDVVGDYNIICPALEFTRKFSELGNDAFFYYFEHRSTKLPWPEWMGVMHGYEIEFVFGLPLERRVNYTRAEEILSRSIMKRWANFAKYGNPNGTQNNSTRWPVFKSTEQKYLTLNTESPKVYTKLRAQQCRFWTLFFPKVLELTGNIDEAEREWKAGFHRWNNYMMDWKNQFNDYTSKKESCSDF
Protocol: (§1) According to the Ellman’s method, assays were performed on AChE from electric eel (C3389-500UN; Sigma) and BuChE from equine serum (C4290-1KU; Sigma). The experiment was performed in 48-well plates in a final volume of 500 µL. Each well contained 0.036 U/mL of eeAChE or eqBuChE, and 0.1 M pH 8 PBS. They were pre-incubated for 20 min at different compound concentrations at 37 °C. […] The DTNB produces the yellow anion 5-thio-2-nitrobenzoic acid along with the enzymatic degradation of ACh or BuCh. Changes in absorbance were measured at 410 nm after 20 min in a PerkinElmer VICTOR Nivo reader. The IC50 values were calculated graphically from inhibition curves (log inhibitor concentration vs percent of inhibition). A control experiment was performed under the same conditions without inhibitor and the blank contained buffer, DMSO, DTNB, and substrate.

[2] = target: T2, AChE from electric eel (Electrophorus electricus, UniProt O42275); assay: EeAChE inhibition assay (Ellman's method); assay type: biochemical; conditions: for inhibition at 20 µM: read-out: AChE % inhibition at 20 µM
T2 construct: assays were performed on AChE from electric eel (C3389-500UN; Sigma); purchased Sigma C3389-500UN
T2 sequence (O42275 24-633): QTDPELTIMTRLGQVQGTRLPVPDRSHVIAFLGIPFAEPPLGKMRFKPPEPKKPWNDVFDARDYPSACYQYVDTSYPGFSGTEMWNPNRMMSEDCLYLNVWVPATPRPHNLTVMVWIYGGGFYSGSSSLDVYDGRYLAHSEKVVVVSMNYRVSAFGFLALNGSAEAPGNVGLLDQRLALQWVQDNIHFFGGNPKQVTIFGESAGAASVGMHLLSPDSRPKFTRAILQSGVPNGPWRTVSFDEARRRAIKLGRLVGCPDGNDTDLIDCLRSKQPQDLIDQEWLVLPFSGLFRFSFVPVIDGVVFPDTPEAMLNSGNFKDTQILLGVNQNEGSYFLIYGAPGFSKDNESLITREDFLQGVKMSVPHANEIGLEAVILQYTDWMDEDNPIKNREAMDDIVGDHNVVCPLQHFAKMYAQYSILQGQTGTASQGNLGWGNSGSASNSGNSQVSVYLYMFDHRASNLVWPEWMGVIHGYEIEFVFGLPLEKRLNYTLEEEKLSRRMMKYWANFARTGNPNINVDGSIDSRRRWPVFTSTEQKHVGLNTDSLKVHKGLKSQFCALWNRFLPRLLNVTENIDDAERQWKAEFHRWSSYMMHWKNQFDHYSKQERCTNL
Protocol: as §1

[3] = AChE from electric eel, 20 µM, na = no inhibitory activity at 20 µM

SMILES: O=S(=O)(F)C(Br)=CC=Cc1ccccc1 [Compound A1, δ-phenyl-α-Br-dienyl sulphonyl fluoride]
- IC50 [1]: 0.082 ± 0.007 µM

SMILES: O=S(=O)(F)C(Br)=CC=Cc1ccc(F)cc1 [Compound A2]
- IC50 [1]: 0.43 ± 0.01 µM

SMILES: O=S(=O)(F)C(Br)=CC=Cc1ccc(Cl)cc1 [Compound A3]
- AChE % inhibition at 20 µM [2, 3]: 33.9 ± 0.9%
- BuChE % inhibition at 20 µM [1]: 42.2 ± 2.1%

SMILES: O=S(=O)(F)C(Br)=CC=Cc1ccc(Br)cc1 [Compound A4]
- BuChE % inhibition at 20 µM [1]: 19.2 ± 1.2%

SMILES: Cc1ccc(C=CC=C(Br)S(=O)(=O)F)cc1 [Compound A5]
- IC50 [1]: 1.72 ± 0.34 µM

SMILES: COc1ccc(C=CC=C(Br)S(=O)(=O)F)cc1 [Compound A6]
- IC50 [1]: 0.31 ± 0.04 µM

SMILES: O=S(=O)(F)C(Br)=CC=Cc1ccc(-c2ccccc2)cc1 [Compound A7]
- inhibition at 20 µM [2, 3]: 11.9 ± 0.5%
- inhibition at 20 µM [1]: 45.2 ± 2%

SMILES: Cc1ccccc1C=CC=C(Br)S(=O)(=O)F [Compound A9]
- inhibition at 20 µM [2, 3]: 23.2 ± 4%
- IC50 [1]: 0.3 ± 0.11 µM

SMILES: O=[N+]([O-])c1ccccc1C=CC=C(Br)S(=O)(=O)F [Compound A11]
- IC50 ([2]; AChE from electric eel, mean ± SEM, read-out: AChE IC50): 0.15 ± 0.01 µM
- IC50 [1]: 0.27 ± 0.15 µM

SMILES: O=S(=O)(F)C(Br)=CC=Cc1ccc2ccccc2c1 [Compound A12]
- IC50 [1]: 2.91 ± 0.26 µM

SMILES: O=S(=O)(F)C(Br)=CC=Cc1cccs1 [Compound A13]
- IC50 [1]: 0.32 ± 0.06 µM

SMILES: O=S(=O)(F)C(Br)=CC=Cc1cccc(Cl)c1 [Compound A14]
- inhibition at 20 µM [2, 3]: 17.9 ± 2%
- IC50 [1]: 0.11 ± 0.02 µM

SMILES: Cc1cccc(C=CC=C(Br)S(=O)(=O)F)c1 [Compound A15]
- IC50 [1]: 0.6 ± 0.12 µM

SMILES: COc1cccc(C=CC=C(Br)S(=O)(=O)F)c1 [Compound A16]
- inhibition at 20 µM [2, 3]: 35.9 ± 1.4%
- IC50 [1]: 0.3 ± 0.04 µM

SMILES: O=S(=O)(F)C(Br)=CC=Cc1cccc(C(F)(F)F)c1 [Compound A17]
- inhibition at 20 µM [2, 3]: 12.1 ± 0.7%
- IC50 [1]: 0.43 ± 0.03 µM

SMILES: Cc1ccc(S(=O)(=O)n2cc(C=CC=C(Br)S(=O)(=O)F)c3ccccc32)cc1 [Compound A19]
- inhibition at 20 µM [2, 3]: 46.2 ± 0.4%
- inhibition at 20 µM [1]: 46 ± 1.6%

SMILES: O=S(=O)(F)C(Br)=CC=CC=Cc1ccccc1 [Compound A20]
- inhibition at 20 µM [2]: 18.7 ± 2.4%
- IC50 [1]: 12.5 µM

SMILES: O=S(=O)(F)/C(Cl)=C/C=C/c1ccccc1 [Compound B1]
- inhibition at 20 µM [2, 3]: 35.9 ± 1.4%
- IC50 [1]: 0.44 ± 0.04 µM

SMILES: O=S(=O)(F)/C(Cl)=C/C=C/c1ccc(F)cc1 [Compound B2]
- inhibition at 20 µM [2, 3]: 18.7 ± 1.7%
- IC50 [1]: 0.51 ± 0.01 µM

SMILES: COc1ccc(/C=C/C=C(\Cl)S(=O)(=O)F)cc1 [Compound B4]
- inhibition at 20 µM [2, 3]: 30.1 ± 3.8%
- IC50 [1]: 0.54 ± 0.19 µM

SMILES: COc1ccccc1/C=C/C=C(\Cl)S(=O)(=O)F [Compound B5]
- inhibition at 20 µM [2, 3]: 34.2 ± 0.4%
- IC50 [1]: 0.13 ± 0.01 µM

SMILES: O=S(=O)(F)/C(Cl)=C/C=C/c1cccc(C(F)(F)F)c1 [Compound B6]
- inhibition at 20 µM [2, 3]: 26.8 ± 2.7%
- IC50 [1]: 0.5 ± 0.21 µM

SMILES: O=S(=O)(F)/C(I)=C/C=C/c1ccccc1 [Compound C1, δ-phenyl-α-I-dienyl sulphonyl fluoride]
- inhibition at 20 µM [2, 3]: 23.4 ± 2.8%
- IC50 [1]: 1.76 ± 0.62 µM

SMILES: O=S(=O)(F)/C(I)=C/C=C/c1ccc(F)cc1 [Compound C2]
- inhibition at 20 µM [2, 3]: 17 ± 1.7%
- IC50 [1]: 0.45 ± 0.03 µM

SMILES: O=S(=O)(F)/C(I)=C/C=C/c1ccc(Cl)cc1 [Compound C3]
- inhibition at 20 µM [2, 3]: 38.9 ± 2.5%
- IC50 [1]: 3.07 ± 1.72 µM

SMILES: O=S(=O)(F)/C(I)=C/C=C/c1ccc(Br)cc1 [Compound C4]
- inhibition at 20 µM [2, 3]: 10.5 ± 3.6%
- IC50 [1]: 0.57 ± 0.03 µM

SMILES: COc1ccccc1/C=C/C=C(\I)S(=O)(=O)F [Compound C5]
- inhibition at 20 µM [2, 3]: 39.5 ± 0.3%
- IC50 [1]: 0.19 ± 0.04 µM

SMILES: O=S(=O)(F)/C(I)=C/C=C/c1cccc(C(F)(F)F)c1 [Compound C6]
- inhibition at 20 µM [2, 3]: 24 ± 6%
- IC50 [1]: 0.5 ± 0.04 µM

SMILES: CCc1ccc(/C(=C\C=C\c2ccccc2)S(=O)(=O)F)cc1 [Compound D1]
- inhibition at 20 µM [2, 3]: 25.1 ± 1.6%
- IC50 [1]: 1.18 ± 0.33 µM

SMILES: CSc1ccc(/C(=C\C=C\c2ccccc2)S(=O)(=O)F)cc1 [Compound D2]
- inhibition at 20 µM [2, 3]: 25.5 ± 0.4%
- inhibition at 20 µM [1]: 28.2 ± 1.89%

SMILES: COc1ccc(/C(=C\C=C\c2ccccc2)S(=O)(=O)F)cc1 [Compound D3]
- inhibition at 20 µM [2, 3]: 47.9 ± 0.4%
- inhibition at 20 µM [1]: 33.7 ± 1.8%

SMILES: O=S(=O)(F)/C(=C/C=C/c1ccccc1)c1ccc(Oc2ccccc2)cc1 [Compound D4]
- inhibition at 20 µM [2, 3]: 36.7 ± 2.8%
- inhibition at 20 µM [1]: 41.2 ± 1.1%
